In the supplement of paper PMC6045584:
± gives the standard deviation of the averaged measurements.

How the values were obtained:
[1] = compound: COCC[n+]1c2c(n(Cc3cnccn3)c1C)C(=O)c1ccccc1C2=O [YM155]; assay: surviving fraction relative to DMSO-only wells; higher = less growth inhibition; conditions: exposure time: 5 days
How it was run: (§1)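 Surviving fraction is CellTiter-Glo luminescence divided by the median of wells given DMSO only. For this, log-phase tumour cell lines went into 384-well plates at 250–500 cells per well and, 24 hours later, into five days of continuous inhibitor exposure at 0.5, 1, 5, 10, 50, 100, 500 and 1000 nM. Lines were screened three times and retained only if replicate Pearson r >0.7 and median Z' >0.3.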

[2] = compound: C[C@]1(O)C[C@@H](c2nc(-c3ccc4ccc(-c5ccccc5)nc4c3)c3c(N)nccn32)C1 [OSI-906]; assay: as above; conditions: exposure time: 5 days
How it was run: as §1

## HU09 BONE
[1]; 0.5 nM
  surviving fraction: 0.942 ± 0.072
[1]; 1 nM
  surviving fraction: 1.01 ± 0.13
[1]; 5 nM
  surviving fraction: 0.925 ± 0.053
[1]; 10 nM
  surviving fraction: 0.917 ± 0.11
[1]; 50 nM
  surviving fraction: 0.5387 ± 0.004
[1]; 100 nM
  surviving fraction: 0.374 ± 0.016
[1]; 500 nM
  surviving fraction: 0.161 ± 0.0055
[1]; 1000 nM
  surviving fraction: 0.0983 ± 0.0055
[2]; 0.5 nM
  surviving fraction: 0.79 ± 0.071
[2]; 1 nM
  surviving fraction: 0.852 ± 0.082
[2]; 5 nM
  surviving fraction: 0.956 ± 0.067
[2]; 10 nM
  surviving fraction: 0.909 ± 0.043
[2]; 50 nM
  surviving fraction: 0.854 ± 0.11
[2]; 100 nM
  surviving fraction: 0.785 ± 0.027
[2]; 500 nM
  surviving fraction: 0.517 ± 0.087
[2]; 1000 nM
  surviving fraction: 0.481 ± 0.04

## HUO3N1 BONE
[1]; 0.5 nM
  surviving fraction: 0.984 ± 0.065
[1]; 1 nM
  surviving fraction: 1.06 ± 0.015
[1]; 5 nM
  surviving fraction: 1.01 ± 0.036
[1]; 10 nM
  surviving fraction: 1.06 ± 0.04
[1]; 50 nM
  surviving fraction: 0.529 ± 0.14
[1]; 100 nM
  surviving fraction: 0.477 ± 0.046
[1]; 500 nM
  surviving fraction: 0.137 ± 0.0093
[1]; 1000 nM
  surviving fraction: 0.0927 ± 0.0065
[2]; 0.5 nM
  surviving fraction: 0.938 ± 0.09
[2]; 1 nM
  surviving fraction: 0.933 ± 0.068
[2]; 5 nM
  surviving fraction: 0.948 ± 0.082
[2]; 10 nM
  surviving fraction: 0.92 ± 0.053
[2]; 50 nM
  surviving fraction: 0.975 ± 0.047
[2]; 100 nM
  surviving fraction: 0.88 ± 0.029
[2]; 500 nM
  surviving fraction: 0.779 ± 0.031
[2]; 1000 nM
  surviving fraction: 0.794 ± 0.035

## JIMT1 BREAST
[1]; 0.5 nM
  surviving fraction: 0.971 ± 0.033
[1]; 1 nM
  surviving fraction: 0.992 ± 0.021
[1]; 5 nM
  surviving fraction: 0.888 ± 0.033
[1]; 10 nM
  surviving fraction: 0.543 ± 0.056
[1]; 50 nM
  surviving fraction: 0.0545 ± 0.0027
[1]; 100 nM
  surviving fraction: 0.0323 ± 0.0027
[1]; 500 nM
  surviving fraction: 0.0275 ± 0.0013
[1]; 1000 nM
  surviving fraction: 0.0318 ± 0.0055
[2]; 0.5 nM
  surviving fraction: 0.921 ± 0.029
[2]; 1 nM
  surviving fraction: 0.892 ± 0.02
[2]; 5 nM
  surviving fraction: 0.92 ± 0.063
[2]; 10 nM
  surviving fraction: 0.926 ± 0.03
[2]; 50 nM
  surviving fraction: 1.02 ± 0.039
[2]; 100 nM
  surviving fraction: 1.08 ± 0.094
[2]; 500 nM
  surviving fraction: 1.02 ± 0.077
[2]; 1000 nM
  surviving fraction: 1.02 ± 0.046

## JURKAT HAEMATOPOIETIC AND LYMPHOID TISSUE
[1]; 0.5 nM
  surviving fraction: 1.02 ± 0.062
[1]; 1 nM
  surviving fraction: 1.033 ± 0.0072
[1]; 5 nM
  surviving fraction: 0.782 ± 0.015
[1]; 10 nM
  surviving fraction: 0.445 ± 0.014
[1]; 50 nM
  surviving fraction: 0.0363 ± 0.00058
[1]; 100 nM
  surviving fraction: 0.029
[1]; 500 nM
  surviving fraction: 0.027
[1]; 1000 nM
  surviving fraction: 0.0317 ± 0.00058
[2]; 0.5 nM
  surviving fraction: 0.966 ± 0.033
[2]; 1 nM
  surviving fraction: 0.971 ± 0.013
[2]; 5 nM
  surviving fraction: 0.998 ± 0.032
[2]; 10 nM
  surviving fraction: 0.9753 ± 0.009
[2]; 50 nM
  surviving fraction: 0.98 ± 0.067
[2]; 100 nM
  surviving fraction: 0.965 ± 0.039
[2]; 500 nM
  surviving fraction: 1.02 ± 0.012
[2]; 1000 nM
  surviving fraction: 0.99 ± 0.021

## KPD BONE
[1]; 0.5 nM
  surviving fraction: 0.966 ± 0.037
[1]; 1 nM
  surviving fraction: 0.995 ± 0.068
[1]; 5 nM
  surviving fraction: 0.519 ± 0.033
[1]; 10 nM
  surviving fraction: 0.266 ± 0.046
[1]; 50 nM
  surviving fraction: 0.0473 ± 0.0081
[1]; 100 nM
  surviving fraction: 0.0347 ± 0.004
[1]; 500 nM
  surviving fraction: 0.0237 ± 0.0025
[1]; 1000 nM
  surviving fraction: 0.0257 ± 0.0021
[2]; 0.5 nM
  surviving fraction: 0.958 ± 0.037
[2]; 1 nM
  surviving fraction: 0.978 ± 0.051
[2]; 5 nM
  surviving fraction: 0.9457 ± 0.0072
[2]; 10 nM
  surviving fraction: 0.952 ± 0.097
[2]; 50 nM
  surviving fraction: 0.796 ± 0.018
[2]; 100 nM
  surviving fraction: 0.557 ± 0.021
[2]; 500 nM
  surviving fraction: 0.112 ± 0.0049
[2]; 1000 nM
  surviving fraction: 0.081 ± 0.019

## MCF7 BREAST
[1]; 0.5 nM
  surviving fraction: 0.853 ± 0.076
[1]; 1 nM
  surviving fraction: 0.883 ± 0.018
[1]; 5 nM
  surviving fraction: 0.679 ± 0.063
[1]; 10 nM
  surviving fraction: 0.368 ± 0.033
[1]; 50 nM
  surviving fraction: 0.0596 ± 0.0041
[1]; 100 nM
  surviving fraction: 0.043 ± 0.003
[1]; 500 nM
  surviving fraction: 0.0207 ± 0.00033
[1]; 1000 nM
  surviving fraction: 0.0226 ± 0.0014
[2]; 0.5 nM
  surviving fraction: 0.832 ± 0.042
[2]; 1 nM
  surviving fraction: 0.85 ± 0.044
[2]; 5 nM
  surviving fraction: 0.816 ± 0.022
[2]; 10 nM
  surviving fraction: 0.825 ± 0.056
[2]; 50 nM
  surviving fraction: 0.831 ± 0.018
[2]; 100 nM
  surviving fraction: 0.847 ± 0.029
[2]; 500 nM
  surviving fraction: 0.722 ± 0.036
[2]; 1000 nM
  surviving fraction: 0.661 ± 0.013

## MDAMB134 BREAST
[1]; 0.5 nM
  surviving fraction: 0.783 ± 0.027
[1]; 1 nM
  surviving fraction: 0.855 ± 0.052
[1]; 5 nM
  surviving fraction: 0.759 ± 0.037
[1]; 10 nM
  surviving fraction: 0.5665 ± 0.005
[1]; 50 nM
  surviving fraction: 0.775 ± 0.051
[1]; 100 nM
  surviving fraction: 0.634 ± 0.13
[1]; 500 nM
  surviving fraction: 0.567 ± 0.0014
[1]; 1000 nM
  surviving fraction: 0.435 ± 0.064
[2]; 0.5 nM
  surviving fraction: 0.667 ± 0.12
[2]; 1 nM
  surviving fraction: 0.797 ± 0.014
[2]; 5 nM
  surviving fraction: 0.679 ± 0.039
[2]; 10 nM
  surviving fraction: 0.627 ± 0.037
[2]; 50 nM
  surviving fraction: 0.732 ± 0.016
[2]; 100 nM
  surviving fraction: 0.72 ± 0.0071
[2]; 500 nM
  surviving fraction: 0.587 ± 0.016
[2]; 1000 nM
  surviving fraction: 0.616 ± 0.088

## MDAMB361 BREAST
[1]; 0.5 nM
  surviving fraction: 0.869 ± 0.069
[1]; 1 nM
  surviving fraction: 0.826 ± 0.073
[1]; 5 nM
  surviving fraction: 0.919 ± 0.23
[1]; 10 nM
  surviving fraction: 0.549 ± 0.041
[1]; 50 nM
  surviving fraction: 0.224 ± 0.0076
[1]; 100 nM
  surviving fraction: 0.191 ± 0.022
[1]; 500 nM
  surviving fraction: 0.103 ± 0.0066
[1]; 1000 nM
  surviving fraction: 0.0887 ± 0.0074
[2]; 0.5 nM
  surviving fraction: 0.669 ± 0.025
[2]; 1 nM
  surviving fraction: 0.682 ± 0.024
[2]; 5 nM
  surviving fraction: 0.721 ± 0.04
[2]; 10 nM
  surviving fraction: 0.741 ± 0.061
[2]; 50 nM
  surviving fraction: 0.847 ± 0.067
[2]; 100 nM
  surviving fraction: 0.842 ± 0.011
[2]; 500 nM
  surviving fraction: 0.758 ± 0.015
[2]; 1000 nM
  surviving fraction: 0.797 ± 0.033

## MDAMB453 BREAST
[1]; 0.5 nM
  surviving fraction: 0.989 ± 0.048
[1]; 1 nM
  surviving fraction: 0.949 ± 0.089
[1]; 5 nM
  surviving fraction: 0.306 ± 0.021
[1]; 10 nM
  surviving fraction: 0.2993 ± 0.0025
[1]; 50 nM
  surviving fraction: 0.11 ± 0.0085
[1]; 100 nM
  surviving fraction: 0.0773 ± 0.014
[1]; 500 nM
  surviving fraction: 0.0533 ± 0.0076
[1]; 1000 nM
  surviving fraction: 0.057 ± 0.017
[2]; 0.5 nM
  surviving fraction: 1.03 ± 0.03
[2]; 1 nM
  surviving fraction: 1.03 ± 0.016
[2]; 5 nM
  surviving fraction: 1.077 ± 0.0087
[2]; 10 nM
  surviving fraction: 1.06 ± 0.021
[2]; 50 nM
  surviving fraction: 1.06 ± 0.051
[2]; 100 nM
  surviving fraction: 1.04 ± 0.014
[2]; 500 nM
  surviving fraction: 1.02 ± 0.042
[2]; 1000 nM
  surviving fraction: 0.98 ± 0.035

## MDAMB468 BREAST
[1]; 0.5 nM
  surviving fraction: 0.953 ± 0.021
[1]; 1 nM
  surviving fraction: 0.901 ± 0.035
[1]; 5 nM
  surviving fraction: 0.325 ± 0.039
[1]; 10 nM
  surviving fraction: 0.0717 ± 0.0067
[1]; 50 nM
  surviving fraction: 0.034 ± 0.002
[1]; 100 nM
  surviving fraction: 0.0367 ± 0.0031
[1]; 500 nM
  surviving fraction: 0.0353 ± 0.0065
[1]; 1000 nM
  surviving fraction: 0.0377 ± 0.0021
[2]; 0.5 nM
  surviving fraction: 0.867 ± 0.12
[2]; 1 nM
  surviving fraction: 0.833 ± 0.13
[2]; 5 nM
  surviving fraction: 0.95 ± 0.032
[2]; 10 nM
  surviving fraction: 0.955 ± 0.092
[2]; 50 nM
  surviving fraction: 1.06 ± 0.087
[2]; 100 nM
  surviving fraction: 1.03 ± 0.036
[2]; 500 nM
  surviving fraction: 0.851 ± 0.09
[2]; 1000 nM
  surviving fraction: 0.846 ± 0.019

## MG63 BONE
[1]; 0.5 nM
  surviving fraction: 0.978 ± 0.036
[1]; 1 nM
  surviving fraction: 1.04 ± 0.057
[1]; 5 nM
  surviving fraction: 0.783 ± 0.048
[1]; 10 nM
  surviving fraction: 0.659 ± 0.026
[1]; 50 nM
  surviving fraction: 0.0477 ± 0.0021
[1]; 100 nM
  surviving fraction: 0.0237 ± 0.0015
[1]; 500 nM
  surviving fraction: 0.021 ± 0.001
[1]; 1000 nM
  surviving fraction: 0.027 ± 0.0017
[2]; 0.5 nM
  surviving fraction: 0.9333 ± 0.0045
[2]; 1 nM
  surviving fraction: 0.919 ± 0.025
[2]; 5 nM
  surviving fraction: 0.989 ± 0.033
[2]; 10 nM
  surviving fraction: 0.963 ± 0.012
[2]; 50 nM
  surviving fraction: 0.971 ± 0.03
[2]; 100 nM
  surviving fraction: 0.943 ± 0.018
[2]; 500 nM
  surviving fraction: 0.896 ± 0.017
[2]; 1000 nM
  surviving fraction: 0.9223 ± 0.0068
